In ChEMBL document CHEMBL3301562, “MMV Box screening against Plasmodium falciparum protein kinases and aminoacyl tRNA synthetases”:

Legend:
Assay type in all cases: functional
Proline--tRNA ligase = target: T1, Proline--tRNA ligase (Plasmodium falciparum (isolate 3D7), UniProt Q8I5R7); experiment: MMV: ProRS recombinant Plasmodium falciparum Prolyl-tRNA-synthetase, assay with yeast tRNA, ATP, and proline and 3 uM MMV malaria box compound, assay read out with kinase glo as % inhibition.
T1 sequence (Q8I5R7 whole entry): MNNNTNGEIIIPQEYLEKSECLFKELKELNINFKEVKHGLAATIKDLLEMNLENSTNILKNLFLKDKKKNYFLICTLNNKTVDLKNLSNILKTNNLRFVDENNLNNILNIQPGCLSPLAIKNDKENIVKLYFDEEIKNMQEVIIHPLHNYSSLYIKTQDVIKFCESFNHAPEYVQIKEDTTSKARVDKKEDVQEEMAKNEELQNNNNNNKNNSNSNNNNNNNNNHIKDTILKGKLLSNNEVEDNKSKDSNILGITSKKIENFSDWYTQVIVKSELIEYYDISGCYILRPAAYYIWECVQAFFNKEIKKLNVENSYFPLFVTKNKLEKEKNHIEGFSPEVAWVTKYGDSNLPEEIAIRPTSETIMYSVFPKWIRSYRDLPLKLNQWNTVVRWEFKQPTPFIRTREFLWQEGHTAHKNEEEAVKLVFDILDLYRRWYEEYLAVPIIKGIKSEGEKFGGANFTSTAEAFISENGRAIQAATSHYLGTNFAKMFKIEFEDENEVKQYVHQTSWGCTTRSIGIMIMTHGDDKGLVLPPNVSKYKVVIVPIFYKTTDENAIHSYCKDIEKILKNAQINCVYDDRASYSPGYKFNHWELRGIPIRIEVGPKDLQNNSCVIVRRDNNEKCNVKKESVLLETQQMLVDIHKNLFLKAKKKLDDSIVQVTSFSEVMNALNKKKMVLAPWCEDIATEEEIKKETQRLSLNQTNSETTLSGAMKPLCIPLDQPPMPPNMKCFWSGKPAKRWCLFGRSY

[1] = target: T2, Mitogen-activated protein kinase (Plasmodium falciparum, UniProt Q25917); experiment: Final concentrations were 1 uM ATP, 0.5 mM DTT, 1 mM MgCl2, 0.5 mg/mL BSA, and 10 ug/ml MAP2 in a buffer of 50 mM HEPES (pH 7.0). 0.5 mg/mL histone III-S served as the substrate (13); 100 uM AMP-PNP, an ATP analog, was used as a control inhibitor. Incubation time was 4 hours.
T2 sequence (Q25917 whole entry): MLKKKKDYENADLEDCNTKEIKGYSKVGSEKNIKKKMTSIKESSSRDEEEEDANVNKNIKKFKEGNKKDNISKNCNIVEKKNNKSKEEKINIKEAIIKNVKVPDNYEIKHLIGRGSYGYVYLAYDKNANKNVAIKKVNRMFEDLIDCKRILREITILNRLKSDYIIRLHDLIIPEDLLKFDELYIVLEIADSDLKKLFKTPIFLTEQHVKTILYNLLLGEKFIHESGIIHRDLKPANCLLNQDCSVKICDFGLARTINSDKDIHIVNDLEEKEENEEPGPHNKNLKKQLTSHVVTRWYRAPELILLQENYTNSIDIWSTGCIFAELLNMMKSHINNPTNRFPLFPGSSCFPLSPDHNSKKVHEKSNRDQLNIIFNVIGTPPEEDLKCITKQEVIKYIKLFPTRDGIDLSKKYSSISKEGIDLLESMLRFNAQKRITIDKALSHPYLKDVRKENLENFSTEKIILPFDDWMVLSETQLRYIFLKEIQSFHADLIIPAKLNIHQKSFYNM

Lysine--tRNA ligase = Lysine--tRNA ligase (Plasmodium falciparum (isolate 3D7), UniProt Q8IDJ8); experiment: MMV: KRS recombinant Plasmodium falciparum Lysyl-tRNA-synthetase, assay with yeast tRNA, ATP, and lysine and 3 uM MMV malaria box compound, assay read out with kinase glo as % inhibition.
[2] = target: T3, Putative uncharacterized protein pk7 (Plasmodium falciparum, UniProt O96214); experiment: Final concentrations were 1 uM ATP, 2 mM DTT, 20 mM MgCl2, 2 mM MnCl2, 0.01% BSA, and 6 ug/ml PK7, in a buffer of 20 mM Tris-HCl (pH 7.5). The enzyme itself was the only substrate present (since autophosphorylation occurs); 100 uM 1NA-PP1 was used as a control inhibitor. Incubation time was 3 hours.
T3 sequence (O96214 whole entry): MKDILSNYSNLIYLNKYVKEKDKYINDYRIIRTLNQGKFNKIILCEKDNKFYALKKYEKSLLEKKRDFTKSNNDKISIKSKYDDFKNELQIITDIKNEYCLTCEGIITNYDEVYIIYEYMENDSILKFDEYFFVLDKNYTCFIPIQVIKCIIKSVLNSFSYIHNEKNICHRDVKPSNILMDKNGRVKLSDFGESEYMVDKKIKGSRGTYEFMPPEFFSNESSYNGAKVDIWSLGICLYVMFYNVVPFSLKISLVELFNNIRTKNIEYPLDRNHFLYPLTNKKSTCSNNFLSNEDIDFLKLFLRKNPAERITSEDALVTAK

[3] = target: T4, Calcium-dependent protein kinase 4 (Plasmodium falciparum (isolate 3D7), UniProt Q8IBS5); experiment: MMV: CDPK4 Protein kinase inhibition assay using recombinant PfCDPK4, syntide2 peptide substrate, ATP and KinaseGlo to measure % inhibition at 1 uM MMV box compound.
T4 sequence (Q8IBS5 whole entry): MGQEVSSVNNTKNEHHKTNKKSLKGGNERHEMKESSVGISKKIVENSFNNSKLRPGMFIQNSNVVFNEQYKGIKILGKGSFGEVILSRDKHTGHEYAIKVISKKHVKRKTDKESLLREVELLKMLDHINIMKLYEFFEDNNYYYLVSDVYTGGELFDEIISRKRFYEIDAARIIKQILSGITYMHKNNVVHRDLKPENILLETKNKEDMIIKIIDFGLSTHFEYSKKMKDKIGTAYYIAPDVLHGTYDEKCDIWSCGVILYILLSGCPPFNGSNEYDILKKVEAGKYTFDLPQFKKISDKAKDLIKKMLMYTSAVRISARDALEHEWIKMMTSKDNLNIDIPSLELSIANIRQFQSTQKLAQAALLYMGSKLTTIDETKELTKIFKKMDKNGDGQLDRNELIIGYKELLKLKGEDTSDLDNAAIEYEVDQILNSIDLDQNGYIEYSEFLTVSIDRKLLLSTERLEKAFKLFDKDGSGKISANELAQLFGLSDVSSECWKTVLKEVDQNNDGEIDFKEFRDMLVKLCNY

[4] = target: Calcium-dependent protein kinase 1 (Plasmodium falciparum, UniProt P62344); experiment: MMV: CDPK1 Protein kinase inhibition assay using recombinant PfCDPK1, syntide 2 peptide substrate, ATP and KinaseGlo to measure % inhibition at 1 uM MMV box compound.
[5] = target: T5, Cdk-related protein kinase 6 (Plasmodium falciparum, UniProt O77239); experiment: Final concentrations were 1.5 uM ATP, 5 mM MnCl2, and 15 ug/ml PK6 in a buffer of 100 mM Tris-HCl (pH 7.5). 50 ug/mL MBP was provided as the substrate; 10 uM staurosporine was used as a control inhibitor. Incubation time was 3 hours and 40 minutes.The catalytic activity of each kinase was considered proportional to ATP consumed, as determined from measurements of residual [ATP] with the luciferase-based reagent Kinase-Glo (Promega) following incubation. Luminescence (proportional to residual [ATP]) was measured on the plate readers FLx800 (BioTek Instruments, Winooski, VT, USA) and MicroBeta2.
T5 sequence (O77239 whole entry): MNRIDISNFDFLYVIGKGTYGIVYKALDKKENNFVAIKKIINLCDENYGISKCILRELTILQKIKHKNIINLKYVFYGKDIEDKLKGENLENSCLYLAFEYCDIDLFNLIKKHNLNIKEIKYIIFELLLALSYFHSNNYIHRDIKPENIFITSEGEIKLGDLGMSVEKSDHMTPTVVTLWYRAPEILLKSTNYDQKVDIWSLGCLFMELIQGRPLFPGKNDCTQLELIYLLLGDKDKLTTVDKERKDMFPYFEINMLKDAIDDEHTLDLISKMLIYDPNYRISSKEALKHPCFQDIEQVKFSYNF

Chain of Lysine--tRNA ligase (Q8IDJ8 whole entry): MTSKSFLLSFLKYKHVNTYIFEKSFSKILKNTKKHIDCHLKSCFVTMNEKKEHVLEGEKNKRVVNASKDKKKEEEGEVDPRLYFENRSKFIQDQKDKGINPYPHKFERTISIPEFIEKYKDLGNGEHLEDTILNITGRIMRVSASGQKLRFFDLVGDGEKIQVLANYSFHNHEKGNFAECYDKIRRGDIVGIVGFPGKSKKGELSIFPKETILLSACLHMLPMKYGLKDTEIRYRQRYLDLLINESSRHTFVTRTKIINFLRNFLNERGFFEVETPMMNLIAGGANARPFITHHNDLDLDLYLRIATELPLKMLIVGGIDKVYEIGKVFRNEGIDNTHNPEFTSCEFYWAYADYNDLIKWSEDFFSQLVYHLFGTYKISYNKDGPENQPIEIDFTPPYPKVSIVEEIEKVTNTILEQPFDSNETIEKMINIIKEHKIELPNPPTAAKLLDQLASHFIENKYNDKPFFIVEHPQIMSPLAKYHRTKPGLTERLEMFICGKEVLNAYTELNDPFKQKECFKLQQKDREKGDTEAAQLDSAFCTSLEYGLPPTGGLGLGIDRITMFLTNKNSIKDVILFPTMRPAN
Chain of Calcium-dependent protein kinase 1 (P62344 whole entry): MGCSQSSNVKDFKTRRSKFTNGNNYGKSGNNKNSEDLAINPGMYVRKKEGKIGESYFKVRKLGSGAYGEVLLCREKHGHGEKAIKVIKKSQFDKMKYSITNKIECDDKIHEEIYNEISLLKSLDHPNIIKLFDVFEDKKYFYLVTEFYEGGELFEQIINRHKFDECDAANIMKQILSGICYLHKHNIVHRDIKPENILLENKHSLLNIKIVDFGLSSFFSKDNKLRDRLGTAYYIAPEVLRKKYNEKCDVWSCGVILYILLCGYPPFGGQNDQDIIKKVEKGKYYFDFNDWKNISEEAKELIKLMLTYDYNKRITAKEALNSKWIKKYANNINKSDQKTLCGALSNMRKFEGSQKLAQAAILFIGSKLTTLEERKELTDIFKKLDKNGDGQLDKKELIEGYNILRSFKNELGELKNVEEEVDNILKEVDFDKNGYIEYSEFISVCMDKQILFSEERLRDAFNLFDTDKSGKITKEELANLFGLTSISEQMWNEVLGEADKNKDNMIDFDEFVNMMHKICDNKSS

SMILES	IC50 (Proline--tRNA ligase) [nM]	IC50 [1] [nM]	IC50 (Lysine--tRNA ligase) [nM]	IC50 [2] [nM]	IC50 [3] [nM]	IC50 [4] [nM]	IC50 [5] [nM]
CCCCCCOC(=O)C1=C(C)NC(=O)NC1c1ccccc1F (configuration not stated)	> 2500	> 1000	> 2500	> 1000	> 1000	> 1000	> 1000
Cc1ccc(-c2cc3c(SCC(=O)Nc4cc(C(F)(F)F)ccc4Cl)nccn3n2)cc1	> 2500	> 1000	> 2500	> 1000	> 1000	> 1000	> 1000
CC(=O)NCCc1nc2ccccc2n1Cc1ccc(C(C)C)cc1	> 2500	> 1000	> 2500	> 1000	> 1000	> 1000	> 1000
Fc1ccc2[nH]c3c(NCCCN4CCOCC4)ncnc3c2c1	> 2500	> 1000	> 2500	> 1000	> 1000	> 1000	> 1000
O=C(Nc1ccc(F)c(Cl)c1)Nc1ccc(Cl)c(Cl)c1	> 2500	> 1000	> 2500	> 1000	> 1000	> 1000	> 1000
Cc1ccc(C(=O)c2oc3ccc4c(C)cc(=O)oc4c3c2C)cc1	> 2500	> 1000	> 2500	> 1000	> 1000	> 1000	> 1000
CN1c2ccccc2N(C)C1c1ccc2c(c1)OCO2	> 2500	> 1000	> 2500	> 1000	> 1000	> 1000	> 1000
COc1ccccc1NC1=C(N2CCCCC2)C(=O)c2ccccc2C1=O	> 2500	> 1000	> 2500	> 1000	> 1000	> 1000	> 1000
Cc1ccc(-c2cc3nc4c(c(O)n3n2)CCCC4)cc1	> 2500	> 1000	> 2500	> 1000	> 1000	> 1000	> 1000
CCOc1cc(Cl)c(C(C)NC(=O)c2cccc(OC)c2)cc1OCC (configuration not stated)	> 2500	> 1000	> 2500	> 1000	> 1000	> 1000	> 1000
COc1ccc2nc(N)nc(C)c2c1	> 2500	> 1000	> 2500	> 1000	> 1000	> 1000	> 1000
c1ccc(Cn2c(N=Nc3c(Nc4ccccc4)ccc4ccccc34)nc3ccccc32)cc1	> 2500	> 1000	> 2500	> 1000	> 1000	> 1000	> 1000
O=C(NCC(c1ccsc1)N1CCCCCC1)c1ccc(C(F)(F)F)cc1 (configuration not stated)	> 2500	> 1000	> 2500	> 1000	> 1000	> 1000	> 1000
Cc1ccc(OCCCCCCNCCO)c(C)c1	> 2500	> 1000	> 2500	> 1000	> 1000	> 1000	> 1000
CCOc1c(Cl)cc(CNCC(O)c2ccccc2)cc1OC (configuration not stated)	> 2500	> 1000	> 2500	> 1000	> 1000	> 1000	> 1000
CC(C)(C)c1ccc(C2CC3=Nc4ccccc4N(C(=O)c4ccccc4Cl)C(c4ccc(F)cc4)C3=C(O)C2)cc1 (configuration not stated)	> 2500	> 1000	> 2500	> 1000	> 1000	> 1000	> 1000
COc1cc2cc(C(=O)Nc3ccccc3)c(N)nc2cc1OC	> 2500	> 1000	> 2500	> 1000	> 1000	> 1000	> 1000
O=C(Cc1ccccc1)NC(c1ccc(Cl)cc1)c1c(O)ccc2ccccc12 (configuration not stated)	> 2500	> 1000	> 2500	> 1000	> 1000	> 1000	> 1000
CCN(CC)c1ccc(NC(=O)c2cccs2)cc1	> 2500	> 1000	> 2500	> 1000	> 1000	> 1000	> 1000
CCC(C)NCC(O)(c1ccc(Cl)cc1)c1ccc(Cl)cc1 (configuration not stated)	> 2500	> 1000	> 2500	> 1000	> 1000	> 1000	> 1000
CCN(CC)CCNc1ccnc2cc3ccccc3cc12	> 2500	> 1000	> 2500	> 1000	> 1000	> 1000	> 1000
